No end group written: not given here.
Columns and labels:
Type in all cases: in vivo
mice [1] = assay: Maintenance over time of uroguanylin-dependent preferences (warfarin-containing foods, retests); settings: 50 nM uroguanylin
Description: Mice form preferences to food and feeding sites when food odors are paired with the social cues uroguanylin. It was determined whether mice will maintain this preference and return to the learned food odor even after the food has been tainted with the commonly used rodenticide warfarin. […] A preference ratio of 0.5 indicates no preference. […] These same mice were retested one and four days after the initial day of testing. […] By contrast, there was no effect of the test day on the preference ratio.

mice [2] = assay: Concentration/response functions, preference for warfarin-containing food; settings: both foods contain 0.025% warfarin, +/- SEM
Excerpt: Concentration/response functions were studies for uroguanylin. […] A preference ratio of 0.5 indicates no preference.
Concentration/response functions were also studied for guanylin. […] A preference ratio of 0.5 indicates no preference.

C57BL/6J mice = assay: Preference testing after uroguanylin exposure (B6 mice); settings: mean ± s.e.m.
Excerpt: Food preference testing—Food preference assays were modified from those used previously for testing the social transmission of food preference in rats and mice (Galef et al. 1983; Posadas-Andrews and Roper 1983; Valsecchi and Galef 1989; Crawley 2007; Ryan et al. 2008; Munger et al. 2010). In all experiments, subject mice were pair-housed for four days in standard cages with the food container placed on the cage floor. Mice were fed a crushed rodent diet (2018SX, Harlan) to habituate them to powdered food. The amount of food was restricted to 2 g/mouse/day to facilitate feeding during the food preference tests. […] All data were expressed as mean ±S.E.M. Differences were accepted as significant if p<0.05 (see below for statistical tests).
B6 mice were randomly assigned into one of three groups (n=8 each). On the test day, each mouse was moved to individual cages and presented with a petri dish containing a drop of saline (150 μl) with added flavor powder (2% cocoa or 1% cinnamon) with or without uroguanylin (0, 50 nM or 50 μM). After 1 hr exposure, mice were moved to clean cages. After 3 hrs, mice were presented with two food trays (3.5 cm petri dishes mounted to a weighted plastic stage), one of which contained cocoa-odored food (3.5 g) and the other cinnamon-odored food (3.5 g). Subject mice were allowed to feed for 1 hr, at which point the food trays were removed and weighed to calculate the amount of each food consumed. […] Significance between stimulus conditions was determined by one-way ANOVA.
The chemostimulus CS2, when paired with a food odor, is sufficient to increase the attractiveness of foods and to promote the acquisition of food preferences in mice (Bean et al. 1988; Munger et al. 2010). Whether uroguanylin could serve a similar role was tested. Individual observer mice were allowed to interact with a petri dish containing an odor (2% cocoa or 1% cinnamon) with or without uroguanylin (50 nM or 50 μM) in saline. Each mouse was subsequently presented with a choice of two odored chows (cocoa vs. cinnamon).

[3] = 1 nM peptide + food odor in saline for 1 hr
[4] = 50 nM peptide + food odor in saline for 1 hr

Substance	Preference ratio (PR) (mice [1]; initial day of testing, both foods contain 0.025% warfarin)	Preference ratio (PR) (mice [1]; retest Day 2, foods contain 0.025% warfarin)	Preference ratio (PR) (mice [1]; retest Day 5, foods contain 0.025% warfarin)	Preference ratio (PR = food with demonstrated odor (g) consumed/total food (g) consumed) (mice [2]; [3])	Preference ratio (PR = food with demonstrated odor (g) consumed/total food (g) consumed) (mice [2]; [4])	Amount of food consumed, Total food (C57BL/6J mice; Odor + UG (50 nM)) [g]	Amount of food consumed, w/demonstrated odor (C57BL/6J mice; Odor + UG (50 nM)) [g]	Amount of food consumed, w/novel odor (C57BL/6J mice; Odor + UG (50 nM)) [g]	Amount of food consumed, Total food (C57BL/6J mice; Odor + UG (50 μM)) [g]	Amount of food consumed, w/demonstrated odor (C57BL/6J mice; Odor + UG (50 μM)) [g]	Amount of food consumed, w/novel odor (C57BL/6J mice; Odor + UG (50 μM)) [g]
uroguanylin (NDDCELCVNVACTGCL; ends and bridges not checked; cysteine pairing not given here; UniProt Q16661 97-112, looked up) [guanylin family peptide, naturally-occurring peptide hormone produced in the intestines; GC-D agonist]	0.76+/−0.04	0.72 +/−0.06	0.74 +/−0.08	0.65 +/−0.05	0.76 +/−0.04	1.42 ± 0.19	1.08 ± 0.14	0.34 ± 0.08	1.50 ± 0.26	1.15 ± 0.14	0.35 ± 0.12
guanylin (PGTCEICAYAACTGC; ends and bridges not checked; cysteine pairing not given here; UniProt Q02747 101-115, looked up) [guanylin family peptide, naturally-occurring peptide hormone produced in the intestines]				0.75 +/−0.04	0.72 +/−0.04						

Reference: patent publication US9757426B2, “Peptide additives for enhancing acceptance and ingestion of edibles by rodents and uses thereof” (priority 2013, dated 2017)
